Experimental data taken from ChEMBL document CHEMBL1154435, “Synthesis and anti-inflammatory activity evaluation of unsymmetrical selenides” (Eur J Med Chem, 2008).

Columns and labels:
[1] = system: Mus musculus; assay: Safety ratio for toxicity to antiinflammatory activity in po dosed mouse; type: functional
[2] = Acute toxicity in po dosed mouse assessed as death within 7 days; type: organism-based; settings: in vivo
[3] = system: Rattus norvegicus; assay: Antiinflammatory activity against cotton pellets-induced inflammation in Wistar rat assessed as wet weight of granuloma at 10 mg/kg, po after 7 days; type: functional
[4] = system: Rattus norvegicus; assay: Antiinflammatory activity against cotton pellets-induced inflammation in Wistar rat assessed as final weight of granuloma at 10 mg/kg, po after 7 days; type: functional
[5] = system: Rattus norvegicus; assay: Antiinflammatory activity against cotton pellets-induced inflammation in Wistar rat assessed as dry weight of granuloma at 10 mg/kg, po after 7 days; type: functional
[6] = system: Mus musculus; assay: Acute toxicity in mouse assessed as occurrence of ataxia and respiratory problems at 600 mg/kg, po within 7 days; type: organism-based; parameters: dose 600 mg/kg, route oral; settings: in vivo, 168 h
[7] = system: Rattus norvegicus; assay: Antiinflammatory activity against cotton pellets-induced inflammation in Wistar rat assessed as dry weight of granuloma at 5 mg/kg, po after 7 days; type: functional
[8] = system: Rattus norvegicus; assay: Antiinflammatory activity against cotton pellets-induced inflammation in Wistar rat assessed as final weight of granuloma at 5 mg/kg, po after 7 days; type: functional
[9] = system: Rattus norvegicus; assay: Antiinflammatory activity against cotton pellets-induced inflammation in Wistar rat assessed as wet weight of granuloma at 5 mg/kg, po after 7 days; type: functional

Row | SMILES | Ratio [1] | LD50 at 168 h [2] [mg/kg] | Activity [3] [g] | Activity [4] [mg] | Activity [5] [g] | Activity [6] | Activity [7] [g] | Activity [8] [mg] | Activity [9] [g]
1 | O=C(O)C[Se]c1ccccc1C(=O)O | >=60 | > 600 | 0.378 | 33.8 | 0.085 |  |  |  | 
2 | C#CC[Se]c1ccccc1C(=O)O | >=60 | 600 | 0.353 | 30.9 | 0.081 | Toxic |  |  | 
3 | C#CC[Se]c1ccc(C(=O)NC)cc1 | >=60 | > 600 | 0.447 | 41.3 | 0.096 |  |  |  | 
4 | CNC(=O)c1ccc([Se]C=C(C)C)cc1 | >=60 | 600 | 0.369 | 33.2 | 0.087 | Toxic |  |  | 
5 | CC(C)=C[Se]c1ccccc1C(=O)O | >=60 | > 600 | 0.406 | 32.8 | 0.084 |  |  |  | 
6 | CNC(=O)c1ccc([Se]Cc2ccccc2)cc1 | >=60 | > 600 | 0.414 | 35.7 | 0.089 |  |  |  | 
7 | COc1ccc2c(c1)c(CC(=O)O)c(C)n2C(=O)c1ccc(Cl)cc1 [INDOMETHACIN] | 3.3 | 33 |  |  |  |  | 0.072 | 21.8 | 0.307
